{"source": "patent US11655456B2", "about": "“Engineered intestinal tissue and uses thereof” (Organovo, Inc., priority 2016, dated 2023)", "key": {"BCRP": {"biological_target": "T1, BCRP (Homo sapiens, UniProt Q9UNQ0)", "T1 sequence (Q9UNQ0 1-655)": "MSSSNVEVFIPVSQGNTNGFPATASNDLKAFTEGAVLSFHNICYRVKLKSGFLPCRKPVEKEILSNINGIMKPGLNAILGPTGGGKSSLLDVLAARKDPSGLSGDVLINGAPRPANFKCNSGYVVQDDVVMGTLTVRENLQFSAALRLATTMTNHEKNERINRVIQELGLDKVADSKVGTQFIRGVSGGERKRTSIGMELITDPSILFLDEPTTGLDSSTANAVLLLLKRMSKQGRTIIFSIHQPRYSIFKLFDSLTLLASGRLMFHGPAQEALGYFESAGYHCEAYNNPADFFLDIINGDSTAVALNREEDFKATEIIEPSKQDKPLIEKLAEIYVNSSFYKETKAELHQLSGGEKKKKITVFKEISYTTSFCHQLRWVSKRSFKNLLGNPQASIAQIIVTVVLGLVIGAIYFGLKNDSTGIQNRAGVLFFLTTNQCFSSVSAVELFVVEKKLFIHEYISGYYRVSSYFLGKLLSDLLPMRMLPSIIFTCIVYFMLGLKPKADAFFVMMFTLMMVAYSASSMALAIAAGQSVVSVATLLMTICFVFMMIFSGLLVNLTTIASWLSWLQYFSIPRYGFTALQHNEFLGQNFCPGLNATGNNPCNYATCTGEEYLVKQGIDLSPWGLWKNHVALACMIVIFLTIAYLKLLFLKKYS", "procedure": "FIGS. 25A-25D show P-gp and BCRP transporter function in 3D bioprinted intestinal tissue.\nP-gp and BCRP function were tested in the 3D bioprinted intestinal tissue model by measuring bi-directional transport with and without inhibition (FIG. 25C)."}, "[1]": {"tested_on": "3D bioprinted intestinal tissue"}, "[2]": {"tested_on": "3D bioprinted intestinal tissue", "assay": "LDH activity / release from 3D bioprinted intestinal tissue after toxicant treatment"}, "[3]": {"tested_on": "3D bioprinted intestinal tissue", "conditions": "higher / increasing doses of indomethacin"}, "[4]": {"tested_on": "prostaglandin E2 synthesis", "assay": "Prostaglandin E2 synthesis in 3D bioprinted intestinal tissue", "assay_type": "cell-based, human", "conditions": "all indomethacin doses tested"}, "[5]": {"tested_on": "3D bioprinted intestinal tissue", "assay": "Barrier function (TEER) of 3D bioprinted intestinal tissue after toxicant treatment", "conditions": "24 hour incubation, varying doses"}, "[6]": {"tested_on": "3D printed tissues and 2D epithelial monolayers of Caco-2/STC-1 cells", "assay": "Lucifer Yellow permeability (barrier integrity) of 3D printed Caco-2 tissues and 2D monolayers", "assay_type": "in vitro ADME, human", "conditions": "bioprinted 3D constructs and 2D monolayers (Caco-2/STC-1), later stages of culture", "procedure": "FIG. 5 is a bar graph showing permeability comparison of 2D monolayers and 3D bioprinted Caco-2 tissues measured by Lucifer Yellow. […] Permeability was measured on 3D printed tissues and compared to 2D epithelial monolayers of Caco-2/STC-1 cells and interstitium alone.\nExperiment time course studies were run 4, 7, and 14 days post addition of epithelial cells. Tissues were measured for GLP-1 secretion into supernatant. Tissues were also measured for barrier function at multiple time points by TEER or Lucifer yellow (non-lytic assays). After incubation, the tissues were fixed in paraformaldehyde (PFA) for histology or lysed for RNA extraction."}, "COX2, IL8, and TNFα": {"tested_on": "COX2, IL8, and TNFα", "assay": "Inflammation gene expression after TNFα treatment of 3D bioprinted intestinal tissue", "assay_type": "cell-based, human", "conditions": "TNFα high dose, 24 hours", "protocol": "To characterize the 3D bioprinted intestinal model response to inflammation, commonly associated with GI toxicity as well as chronic disease conditions, tissues were treated with a high dose of pro-inflammatory cytokine TNFα for 24 hours and evaluated for changes in morphology, LDH release, and gene expression (FIG. 28)."}, "[7]": {"tested_on": "3D bioprinted intestinal tissue", "remark": "listed apart in the source"}}, "note": "“Also recorded” adds a separate entry of the source.", "data": [{"compound": "O=C1c2c(O)ccc(O)c2C(=O)c2c(NCCNCCO)ccc(NCCNCCO)c21", "note": "[mitoxantrone]", "values": [{"measurement": "permeability in the B to A direction compared with A to B", "setting": "BCRP", "result": "much higher permeability"}]}, {"compound": "CC[C@@]1(O)C(=O)OCc2c1cc1n(c2=O)Cc2cc3c(CN(C)C)c(O)ccc3nc2-1", "note": "[topotecan]", "values": [{"measurement": "efflux ratio", "setting": "BCRP; control conditions", "result": 8.8}]}, {"compound": "C[C@H]1O[C@@H](O[C@H]2[C@@H](O)C[C@H](O[C@H]3[C@@H](O)C[C@H](O[C@H]4CC[C@@]5(C)[C@H](CC[C@@H]6[C@@H]5C[C@@H](O)[C@]5(C)[C@@H](C7=CC(=O)OC7)CC[C@]65O)C4)O[C@@H]3C)O[C@@H]2C)C[C@H](O)[C@@H]1O", "note": "[digoxin]", "values": [{"measurement": "permeability in the apical to basal direction", "setting": "[1]", "result": "moderate"}]}, {"compound": "COc1ccc2c(c1)c(CC(=O)O)c(C)n2C(=O)c1ccc(Cl)cc1", "note": "[indomethacin]", "values": [{"measurement": "LDH activity", "setting": "[2]; 24 hour treatment, increasing indomethacin dose", "result": "increased"}, {"measurement": "LDH release", "setting": "[2]; indomethacin doses above 0.25 mM", "result": "significantly increased"}, {"measurement": "E-Cadherin expression (marker of barrier function)", "setting": "[3]", "result": "reduction in E-Cadherin; also recorded: decreased expression of E-Cadherin"}, {"measurement": "histology of the epithelium", "setting": "[3]", "result": "disruption of the epithelium and distorted nuclear staining; also recorded: increased disruption of the epithelial layer"}, {"measurement": "prostaglandin E2 synthesis", "setting": "[4]", "result": "decreased to similar levels for all indomethacin doses tested; also recorded: inhibition of prostaglandin E2 synthesis"}, {"measurement": "barrier function measured by TEER", "setting": "[5]", "result": "dose response decrease in TEER; also recorded: dose-dependent decrease in barrier function; also recorded: decreased TEER"}]}, {"compound": "Lucifer yellow", "values": [{"measurement": "Lucifer Yellow permeability", "setting": "[6]", "result": "< 3", "unit": "%"}]}, {"compound": "TNFα", "values": [{"measurement": "gene expression of COX2, IL8 and TNFα", "setting": "COX2, IL8, and TNFα", "result": "upregulated"}, {"measurement": "barrier function", "setting": "[7]", "result": "decreased barrier function"}]}]}
